From patent US20060134670A1, “Enabling tools to identify ligands for hormone nuclear receptors” (priority 2004, published 2006)
One block for each compound: values may come before it.

Columns and labels:
LXRβ (NR1H2) = target: T1, LXRβ (NR1H2) (Homo sapiens, UniProt P55055); test: R-SAT single receptor format, LXRβ; type: cell-based; conditions: NIH-3T3 cells transfected with LXRβ
T1 construct: expressed in transfected cells; host or cells: NIH-3T3
T1 sequence (P55055 1-460): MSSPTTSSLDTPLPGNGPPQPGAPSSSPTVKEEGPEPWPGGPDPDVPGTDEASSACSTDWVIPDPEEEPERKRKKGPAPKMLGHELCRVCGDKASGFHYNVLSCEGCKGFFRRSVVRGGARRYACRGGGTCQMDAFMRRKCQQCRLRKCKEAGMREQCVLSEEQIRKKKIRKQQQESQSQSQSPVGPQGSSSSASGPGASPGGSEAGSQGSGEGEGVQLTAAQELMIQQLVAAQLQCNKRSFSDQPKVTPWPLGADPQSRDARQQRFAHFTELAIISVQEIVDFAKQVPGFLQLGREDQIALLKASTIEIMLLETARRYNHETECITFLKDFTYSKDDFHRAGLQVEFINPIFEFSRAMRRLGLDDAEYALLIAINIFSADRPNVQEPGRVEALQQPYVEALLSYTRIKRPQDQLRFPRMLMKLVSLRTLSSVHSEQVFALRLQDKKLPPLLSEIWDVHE
Description: (§1) Curves were generated using XLFit software ([…]).

LXRα (NR1H3) = target: T2, LXRα (NR1H3) (Homo sapiens, UniProt Q13133); test: R-SAT single receptor format, LXRα; type: cell-based; conditions: NIH-3T3 cells transfected with LXRα
T2 construct: expressed in transfected cells; host or cells: NIH-3T3
T2 sequence (Q13133 1-447): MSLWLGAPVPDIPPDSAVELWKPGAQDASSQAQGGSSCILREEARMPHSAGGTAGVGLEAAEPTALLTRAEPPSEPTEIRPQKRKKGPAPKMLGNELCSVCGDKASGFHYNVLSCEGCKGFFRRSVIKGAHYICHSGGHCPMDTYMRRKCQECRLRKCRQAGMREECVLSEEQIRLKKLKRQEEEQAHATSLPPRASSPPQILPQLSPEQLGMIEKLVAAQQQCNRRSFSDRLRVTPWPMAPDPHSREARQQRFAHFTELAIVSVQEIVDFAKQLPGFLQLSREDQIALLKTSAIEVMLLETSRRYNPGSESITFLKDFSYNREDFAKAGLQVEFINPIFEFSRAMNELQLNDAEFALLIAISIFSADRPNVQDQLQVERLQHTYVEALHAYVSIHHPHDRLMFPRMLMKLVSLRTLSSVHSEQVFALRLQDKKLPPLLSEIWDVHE
Description: as §1

[1] = target: T3, CARα and RXR nuclear receptors (heterodimer) (Homo sapiens, UniProt Q14994); test: R-SAT inverse agonism, CARα/RXR; type: cell-based; conditions: cells transfected with CARα and RXR, β-galactosidase activity, FIG. 4A
T3 construct: expressed in transfected cells
T3 sequence (Q14994 1-348 isoform Q14994-2): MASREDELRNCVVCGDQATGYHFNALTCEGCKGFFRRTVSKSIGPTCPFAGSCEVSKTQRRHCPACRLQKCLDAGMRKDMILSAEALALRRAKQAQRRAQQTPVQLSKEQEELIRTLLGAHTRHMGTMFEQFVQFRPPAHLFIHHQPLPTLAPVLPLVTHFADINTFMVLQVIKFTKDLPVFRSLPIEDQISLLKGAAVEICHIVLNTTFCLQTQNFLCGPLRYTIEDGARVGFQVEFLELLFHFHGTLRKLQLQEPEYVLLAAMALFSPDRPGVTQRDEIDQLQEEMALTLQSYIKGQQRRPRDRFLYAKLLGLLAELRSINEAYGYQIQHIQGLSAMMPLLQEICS
T3 sequence (P48443 1-463 partner): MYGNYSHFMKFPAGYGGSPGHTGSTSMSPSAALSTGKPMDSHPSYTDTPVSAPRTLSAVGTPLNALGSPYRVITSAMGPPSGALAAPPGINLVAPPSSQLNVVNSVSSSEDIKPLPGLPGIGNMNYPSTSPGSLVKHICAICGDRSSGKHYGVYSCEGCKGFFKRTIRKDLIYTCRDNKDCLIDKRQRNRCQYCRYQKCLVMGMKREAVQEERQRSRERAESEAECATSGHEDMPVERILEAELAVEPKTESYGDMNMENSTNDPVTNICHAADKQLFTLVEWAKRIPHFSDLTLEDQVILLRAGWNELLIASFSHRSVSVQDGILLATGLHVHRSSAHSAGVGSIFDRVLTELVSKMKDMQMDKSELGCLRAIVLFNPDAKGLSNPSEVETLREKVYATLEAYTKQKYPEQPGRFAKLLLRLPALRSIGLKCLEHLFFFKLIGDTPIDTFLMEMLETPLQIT
Description: as §1

PPARδ (NR1C2) = target: T4, PPARδ (NR1C2) (Homo sapiens, UniProt Q03181); test: R-SAT single receptor format, PPARδ; type: cell-based; conditions: NIH-3T3 cells transfected with PPARδ
T4 construct: expressed in transfected cells; host or cells: NIH-3T3
T4 sequence (Q03181 1-441): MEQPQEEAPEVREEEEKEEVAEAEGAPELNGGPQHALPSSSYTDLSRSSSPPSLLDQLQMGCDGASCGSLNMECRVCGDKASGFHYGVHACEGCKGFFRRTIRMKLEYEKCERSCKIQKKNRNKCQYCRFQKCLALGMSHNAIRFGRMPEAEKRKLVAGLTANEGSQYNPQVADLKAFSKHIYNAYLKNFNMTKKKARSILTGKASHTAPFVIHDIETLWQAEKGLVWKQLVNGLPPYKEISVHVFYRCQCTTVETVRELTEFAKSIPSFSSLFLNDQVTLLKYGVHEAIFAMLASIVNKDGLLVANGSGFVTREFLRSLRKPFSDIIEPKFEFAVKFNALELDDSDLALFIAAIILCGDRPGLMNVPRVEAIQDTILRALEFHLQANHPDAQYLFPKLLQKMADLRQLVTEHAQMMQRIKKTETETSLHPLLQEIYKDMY
Description: as §1

PXR/RXR heterodimer = target: T5, PXR/RXR heterodimer (Homo sapiens, UniProt O75469); conditions: 5 days
T5 sequence (O75469 1-434): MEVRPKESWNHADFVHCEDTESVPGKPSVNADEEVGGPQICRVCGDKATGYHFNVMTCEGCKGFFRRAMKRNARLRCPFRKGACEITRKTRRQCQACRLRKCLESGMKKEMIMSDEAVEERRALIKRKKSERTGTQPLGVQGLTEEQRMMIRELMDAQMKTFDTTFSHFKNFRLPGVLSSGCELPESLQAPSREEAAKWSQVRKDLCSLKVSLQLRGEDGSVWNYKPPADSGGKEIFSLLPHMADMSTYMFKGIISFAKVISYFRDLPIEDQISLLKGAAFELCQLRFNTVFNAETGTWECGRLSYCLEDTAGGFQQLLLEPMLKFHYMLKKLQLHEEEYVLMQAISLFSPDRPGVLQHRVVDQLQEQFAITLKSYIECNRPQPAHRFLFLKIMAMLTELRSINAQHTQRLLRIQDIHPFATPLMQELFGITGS
T5 sequence (P48443 1-463 partner): T3 sequence (P48443 1-463 partner)
Description: On day one, cells were trypsinized, centrifuged and plated at 8,000 cells/well in a 96-well plate in 100 μl/well of Dubelcco's Modified Eagle's Medium (DMEM), 10% calf serum. On day two, cells were transfected using the transfection reagent Superfect® (Qiagen, Inc.) as recommended by the manufacturer. Various doses of the nuclear receptor plasmid DNA were transfected. DNA mixtures included 0.1 to 10 ng/well of receptors DNA, 20 to 30 ng/well of β-galactosidase plasmid DNA (pSV β-galactosidase, Promega) and 15 μl of Superfect®. On day three, the media was replaced by DMEM with 2% Cyto-SF3 (Kemp Biotechnologies, Inc.) containing variable amounts of the compounds being tested. […] All data were obtained by measuring the change in absorbance at 420 nm using an automated plate reader. EC50 values were calculated using the equation r=A+B(x/(c+c)), where A=minimum response, B=maximum response minus maximum response, c=EC50, r=response, and x=concentration of ligand. Curves were generated using XLFit software (Microsoft).
The coactivators GRIP1 (Glucocorticoid Receptor Interacting Protein 1) (GenBank U39060) and SRC-1 (Steroid Receptor Coactivator 1) (GenBank U90661) were used in this assay. In summary, plasmid DNA encoding the coactivator(s) were transfected along with the aforementioned transfection mixture (containing the PXR, RXR, and β-Gal plasmid DNAs).

EC50 (LXRβ (NR1H2)): 3000 to 5000 nM
EC50 (LXRα (NR1H3)): 3000 to 5000 nM
SMILES: CC(C)CC[C@@H](O)[C@@H](C)[C@H]1CC[C@H]2[C@@H]3CC=C4C[C@@H](O)CC[C@]4(C)[C@H]3CC[C@]12C [22(R)OH-Cholesterol]

SMILES: C[C@]12CC[C@@H](O)C[C@@H]1CC[C@@H]1[C@@H]2CC[C@]2(C)C=CC[C@@H]12 [Androstenol]
inverse agonist activity [1]: inverse agonist activity

EC50 (PPARδ (NR1C2)): 200 to 500 nM
SMILES: CCCCC[C@H](O)/C=C/[C@@H]1[C@H]2C/C(=C/CCCC(=O)O)C[C@H]2C[C@H]1O [carbaprostacyclin]

efficacy of pharmacological response (PXR/RXR heterodimer): 5-10%
SMILES: CO[C@H]1/C=C/O[C@@]2(C)Oc3c(C)c(O)c4c(O)c(c(/C=N/N5CCN(C)CC5)c(O)c4c3C2=O)NC(=O)/C(C)=C\C=C\[C@H](C)[C@H](O)[C@@H](C)[C@@H](O)[C@@H](C)[C@H](OC(C)=O)[C@@H]1C [rifampicin]
